Measurements reported in ChEMBL document CHEMBL3045136, “QSAR and flexible docking studies of some aldose reductase inhibitors obtained from natural origin” (Med Chem Res, 2012).

Target: Aldo-keto reductase family 1 member B1 (Rattus norvegicus, UniProt P07943)
Assay: Inhibition of Rattus norvegicus (rat) lens aldose reductase

Compound | IC50
COc1cc2c(c(O)c1C)COC(C)C2 (centres undefined) [6-METHOXY-3,7-DIMETHYLISOCHROMAN-8-OL] | 33.1 µM
CC(C(=O)O)N1C(=O)c2cc3c(c(O)c2C1=O)CC([C@@H](C)C(=O)O)O3 (some centres undefined) | 2 µM
CC(=O)C[C@@]1(O)C(=O)C2=C(OC[C@@H]2C)c2ccc3c(c21)CCCC3(C)C | 1.74 µM
C[C@@H](C(=O)O)C1Cc2c(cc3c(c2O)C(=O)NC3=O)O1 (some centres undefined) | 5.37 µM
O=C(/C=C/c1ccc(O)c(O)c1)O[C@H](Cc1ccc(O)c(O)c1)C(=O)O [ROSMARINIC ACID] | 3.89 µM
CC(C(=O)O)N1Cc2c(cc3c(c2O)CC([C@@H](C)C(=O)O)O3)C1=O (some centres undefined) | 4.47 µM
CC1(C)C[C@H](O)[C@]23CC[C@@H](O)[C@](C)(CCC12)C3 (some centres undefined) | 95.5 µM
CC(C)c1ccc2c(c1)CCC1[C@@](C)(CO)CCC[C@]21C (some centres undefined) | 38.9 µM
COc1cc2c(c(OC)c1OC)-c1c(cc(O)c(OC)c1OC)C[C@H](C)[C@H](C)[C@H]2O | 38 µM
CNC(=O)Oc1c(C)c(OC)cc2c1COC(C)C2 (centres undefined) | 34.7 µM
CCOc1ccc(C(=O)/C(C)=C(/C)C(=O)c2ccc(O)c(OC)c2)cc1OC | 34.7 µM
COc1cc([C@H]2O[C@H](c3ccc(O)c(OC)c3)[C@@H](C)[C@H]2C)ccc1O | 25.1 µM
Cc1cc(C(=O)O)c(O)c2c1[C@H](C)[C@@H](C)OC2 | 12 µM
CC1(C)C2CC[C@]3(C)C(CC=C4C5C[C@](C)(C(=O)O)C[C@H](O)[C@]5(C)CC[C@]43C)[C@@]2(C)CC[C@@H]1O (some centres undefined) | 75.9 µM
COc1cc(C(=O)/C(C)=C(/C)C(=O)c2ccc(O)c(OC)c2)ccc1O | 100 µM
CC(C)c1ccc2c(c1)CCC1[C@@](C)(C(=O)O)CCC[C@]21C (some centres undefined) | 35.5 µM

Compound | IC50
O=CC(O)C(O)(Oc1ccc(/C=C/C(=O)O[C@H](Cc2ccc(O)c(O)c2)C(=O)O)cc1O)C(O)C(O)CO (some centres undefined) | 3.16 µM
O=Cc1ccc(CO)o1 [AES-103] | 182 µM
COc1cc(/C=C(/C)[C@H](C)Cc2ccc(O)c(OC)c2)ccc1O | 35.5 µM
COC(=O)c1cc2cc3cc4cc(CC(=O)O)c(C(=O)/C=C(\O)c5ccccc5O)c(OC)c4c(OC)c3c(O)c2c(=O)o1 | 0.00129 µM
Cc1cccc2c3c(ccc12)C1=C(C(=O)C3=O)[C@@H](C)CO1 [DIHYDROTANSHINONE I] | 1.2 µM
C=C(C)C1CCC(COC2O[C@H](CO)[C@H](O)[C@@H](O)C2O)CC1 (some centres undefined) | 28.2 µM
CC1(C)CC2C1CC[C@@]1(C)C[C@]2(O)CC[C@@H]1O (some centres undefined) | 44.7 µM
CC1(C)C2CC[C@]3(C)C(CC=C4C5C[C@](C)(C(=O)O)C[C@@H](O)[C@]5(C)CC[C@]43C)[C@@]2(C)CC[C@@H]1O (some centres undefined) | 55 µM
COc1cc2c(c(OC)c1C)COC(C)C2 (centres undefined) [6,8-DIMETHOXY-3,7-DIMETHYLISOCHROMAN] | 100 µM
O=C(/C=C/c1ccc(O)c(O)c1)OC1C[C@](O)(C(=O)O)C[C@H](O)[C@@H]1O (some centres undefined) | 1.82 µM
C[C@H]1COC2=C1C(=O)C(=O)c1c2ccc2c1CCCC2(C)C [CRYPTOTANSHINONE] | 4.79 µM
COc1cc([C@H]2O[C@@H](c3ccc(O)c(OC)c3)[C@@H](C)[C@H]2C)ccc1O [TETRAHYDROFUROGUAIACIN B] | 21.4 µM
CC(=O)C1=C(O)C2=CO[C@H](C)[C@@H](C)C2=C(C)C1=O | 8.71 µM
CC(=O)O[C@H]1C[C@]2(CO)C3CC[C@@]4(C)C(C(=O)CC(=O)[C@@H]4C)[C@]3(C)CC[C@@]2(C)C2CC(C)(C)CC[C@@]21C (some centres undefined) | 47.9 µM
COc1cc2c(=O)oc3c(O)c(O)cc4c(=O)oc(c1O)c2c34 | 10 µM
C=C(C)[C@@H]1CC=C(COC2OC(CO)[C@H](O)[C@@H](O)[C@@H]2O)CC1 (some centres undefined) | 14.5 µM

Continued, values first:

IC50 | Compound
12 µM | CC(CCC(=O)O)N1Cc2c(cc3c(c2O)CC([C@@H](C)C(=O)O)O3)C1=O (some centres undefined)
2.4 µM | O=C(O)C1Cc2c(oc(=O)c3cc(O)c(O)c(O)c23)C1=O (centres undefined)
0.1 µM | CC(=O)C[C@@]1(O)C(=O)C2=C(OC[C@@H]2C)c2ccc3c(C)cccc3c21
0.871 µM | Cc1cccc2c3c(ccc12)C(=O)C(C(C)CO)=C(O)C3=O (centres undefined) [DANSHENXINKUN A]
10 µM | Cc1coc2c1C(=O)C(=O)c1c-2ccc2c(C)cccc12 [TANSHINONE I]
1.26 µM | C[C@@H](C(=O)O)C1Cc2c(cc3c(c2O)CN(CC(=O)O)C3=O)O1 (some centres undefined)
28.8 µM | CC(=O)c1c(O)cc(O)cc1O[C@@H]1OC(COC(=O)c2cc(O)c(O)c(O)c2)[C@H](O)[C@H](O)[C@@H]1O (some centres undefined)
2.82 µM | O=C(/C=C/c1ccc(O[C@@H](C(=O)O)[C@@H](O)c2ccc(O)c(O)c2)c(O)c1)O[C@H](Cc1ccc(O)c(O)c1)C(=O)O
2.63 µM | O=C(/C=C/c1ccc(O)c2c1[C@H](C(=O)O[C@@H](Cc1ccc(O)c(O)c1)C(=O)O)[C@@H](c1ccc(O)c(O)c1)O2)O[C@H](Cc1ccc(O)c(O)c1)C(=O)O
19.1 µM | O=C1CC(O)C1=O (centres undefined)
5.01 µM | CCOC(=O)C1Cc2c(oc(=O)c3cc(O)c(O)c(O)c23)C1=O (centres undefined)
46.8 µM | C=C(C)C1CCC(CO[C@H]2OC(CO)C(O)[C@H](O)[C@@H]2O)CC1 (some centres undefined)
43.7 µM | O=C1C(O)=CC(=O)c2c(O)cc(O)cc21 [FLAVIOLIN]
55 µM | CCCC/C=C/CCCCCCCCCC1=C(OC)C(=O)C=C(OC)C1=O
0.447 µM | C[C@@H](C(=O)O)C1Cc2c(cc3c(c2O)C(=O)N(CC(=O)O)C3=O)O1 (some centres undefined)
55 µM | C=C(C)[C@@H]1CC=C(COC2OC(CO)[C@H](O)[C@H](O)[C@H]2O)CC1 (some centres undefined)
38 µM | COc1cc([C@H]2O[C@@H](c3ccc(O)c(OC)c3)[C@H](C)[C@@H]2C)ccc1O [NECTANDRIN B]
